How the values were obtained:
[1] = system: L6 rat skeletal cells; assay: MTT assay, viability of L6 cells under hypoxic conditions; assay type: cell-based; conditions: 80 μg/ml, 12 h pretreatment, 1 h hypoxia; vehicle 27% ± 1.3%; means ± SD
Experimental: L6 cells were cultured in 96-well tissue culture plates (1×10^4 cell/well) with 10% FBS for 24 hours. Serum-free medium was then used for another 24 hours prior to treatment with RGC, Rhodiola crenulata extract, or Ginkgo biloba extract. Cell viability and proliferation were measured by the 3-(4,5-dimethylthiazol-2-yl)-2,5-diphenyltetrazolium bromide (MTT) and 5-bromo-2′-deoxyuridine (BrdU) (Roche Diagnostics, USA) incorporation assays, respectively.
The L6 cells were plated in 96-well plates (5000 cell/well) for 24 hours. Then the serum-free medium was used and cells incubated for another 12 hours. Sequentially, cells were pretreated with various concentrations (20 μg/ml, 40 μg/ml, 80 μg/ml) of RG, Rhodiola Crenulata, or Ginkgo biloba, respectively, or Vitamin C (80 μg/ml) for 12 hours, followed by exposure to an ischemic solution (EBSS) and placed in an anaerobic chamber (Diagnostic System) for 1 hour. The control cells were incubated without treatment for 1 hour. After 1 hour exposure to hypoxic and ischemic environments, 100 μl MTT (0.5 mg/ml in PBS) was added to each well and the cells were incubated at 37° C. for 4 h. The MTT solution was prepared by dissolving 250 mg of MTT in 50 ml PBS (0.01 mol/L, PH7.4) to prepare 0.5% MTT staining solution. The solution was then filtered through Millipore membrane and stored at 4° C. […]

[2] = system: L6 rat skeletal cells; assay: SOD antioxidant assay, SOD activity of L6 cells under hypoxic conditions; assay type: cell-based; conditions: 80 μg/ml, hypoxic condition; vehicle 16.58% ± 0.31%; means ± SD
Experimental: Cells were homogenized in ice-cold phosphate buffer (50 mmol/L, pH 7.4) to make 10% w/v homogenate with a motor-driven Potter-Elvejhem glass homogenizer at 0-4° C. The homogenate will be then centrifuged at 300 g for 10 min at 4° C. to remove intact cells and debris. The remaining supernatant was divided into 2 parts for different enzyme assays. For SOD assays, the supernatant will be centrifuged at 2300 g for a further 10 min at 4° C. After centrifugation, the pellets will be discarded and the supernatants were used for the assessment of enzyme activity. The procedure was carried out on ice or at 0-4° C. Reagents for the assay were obtained through a commercially available SOD Assay Kit.
The samples were mixed and placed in a water bath at 37° C. for 40 min. A chromogenic agent (200 μl) was then added, the samples mixed, then left at room temperature for 10 min before absorbance at 550 nm was detected. The Inhibition ration was then calculated using the formula: Inhibition ratio=(ODn−OD1)/OD1×100%. […] The protein concentration was measured using the BCA protein quantitative assay.
After 10 μl was selected for use for the SOD assays, SOD activity assays were performed for the samples of the various treatment groups (20 μg/ml, 40 μg/ml, or 80 μg/ml of RG, Rhodiola Crenulata, or Ginkgo biloba, respectively, and 80 μg/ml of Vitamin C) where the sample volumes were as shown in Table 10. […]

## O=C1O[C@H]([C@@H](O)CO)C(O)=C1O [Vitamin C]
[1]
  Cell proliferation in hypoxic conditions (cell survival rate, MTT): 41% ± 3.2%
[2]
  SOD Enzymatic Activity: 20.00% ± 0.08%
